Literature values in patent US9434994B2, “Methods for prediction of clinical outcome to epidermal growth factor receptor inhibitors by non-small cell lung cancer patients” (The Regents of the University of Colorado, a body corporate, priority 2004, dated 2016).

Experiments:
advanced BAC patients = settings: cited from earlier work
[1] = test system: chemotherapy resistant NSCLC patients; settings: single agent; cited from earlier work
NSCLC patients = settings: erlotinib versus placebo, second or third line; cited from earlier work

Compound	Median Survival (advanced BAC patients)	response rates [1]	Hazard Ratio, survival (NSCLC patients)
CC(=O)O[C@H]1C(=O)[C@@]2(C)[C@H]([C@H](OC(=O)c3ccccc3)[C@]3(O)C[C@H](OC(=O)[C@H](O)[C@@H](NC(=O)c4ccccc4)c4ccccc4)C(C)=C1C3(C)C)[C@]1(OC(C)=O)CO[C@@H]1C[C@@H]2O [paclitaxel]	12 months		
C#Cc1cccc(Nc2ncnc3cc(OCCOC)c(OCCOC)cc23)c1 [erlotinib]		about 10%	0.73
